This note sets out measurements from US8853219B2, “Compounds and compositions for cognition-enhancement, methods of making, and methods of treating” (NeuroSolis, Inc., priority 2010, dated 2014).

Where two headings read alike, the source gives them in different places.

The target in data set [1] is T1, human muscarinic M1 receptors (Homo sapiens, UniProt P11229).
T1 construct: host or cells: A9L cells
T1 sequence (P11229 1-460): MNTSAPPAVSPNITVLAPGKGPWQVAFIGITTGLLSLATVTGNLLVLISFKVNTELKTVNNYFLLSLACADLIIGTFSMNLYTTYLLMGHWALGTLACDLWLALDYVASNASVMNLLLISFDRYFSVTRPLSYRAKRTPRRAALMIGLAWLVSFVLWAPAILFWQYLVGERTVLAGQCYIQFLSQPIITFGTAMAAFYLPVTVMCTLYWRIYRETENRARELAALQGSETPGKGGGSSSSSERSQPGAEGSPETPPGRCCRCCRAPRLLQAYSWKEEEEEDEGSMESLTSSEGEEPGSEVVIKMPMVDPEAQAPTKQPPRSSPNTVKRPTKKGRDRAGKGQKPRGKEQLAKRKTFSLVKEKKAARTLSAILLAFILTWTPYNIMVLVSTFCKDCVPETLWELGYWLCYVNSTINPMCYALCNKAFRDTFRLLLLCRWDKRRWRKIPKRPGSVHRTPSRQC
The experiment in a line: Stimulation of inositol phosphate production in A9L cells, human M1 (IPOne TR-FRET). Format: cell-based. Here is the method: (§1) Muscarinic M1 and M3 agonist activity was evaluated by measuring the stimulation of inositol phosphate (IP) production in the presence of lithium chloride from A9L cells transfected with expression plasmids containing human muscarinic M1 and M3 receptors, respectively. The cell lines were a gift from Professor W Messer, and the methods were as described in Tejada F R et al. J. Med. Chem. 2006; 49: 7518-31 except that the assay was scaled down to run in 384 well plates, and IP was measured in the cell lysates using the non-isotopic IPOne TR-FRET assay (CIS-BIO, Inc).
(§2) Cells were grown to 90% confluence in 384 well hi-base plates (Greiner Bio-One), compounds were added at suitable concentrations in growth medium containing 10 mM LiCL, buffered with an extra 10 mM HEPES (pH7.4), and incubated for 60 minutes at 37° C. Cells were lysed and assayed for IP following the manufacturer's instructions.
(§3) The value for a full agonist is 100%, while partial agonists give values below 100%.
For orientation: Time-resolved FRET reads energy transfer from a long-lived donor to a nearby acceptor.

Data set [2] has as its target T2, human muscarinic M3 receptors (Homo sapiens, UniProt P20309).
T2 construct: host or cells: A9L cells
The experiment in a line: Stimulation of inositol phosphate production in A9L cells, human M3 (IPOne TR-FRET). Format: cell-based. Here is the method: as §1, §2, §3

The subject of the next data set is CD-I mice. The experiment in a line: Apomorphine induced climbing model of psychosis. Format: in vivo, mouse. Here is the method:
As described in Costall et. al. European Journal of Pharmacology 1978, 50, 39. individual CD-I mice, 1-2 months old, were placed in a cylindrical wire mesh cage (13.2 cm high×13.2 cm diameter) constructed of steel wire 1 mm thick spaced at 1.2 cm^2. Cylinders were placed in a standard OptiMICE mouse cage (29×32×9×29 cm wide and 14 cm high) with adequate wood chip bedding provided. Observations of climbing (defined as 3 or more paws off the ground) were carried out every 5 minutes at a duration of 1 minute for 30 minutes. Animals were injected subcutaneously under isoflurane anesthesia with test compounds, reference compounds, which included clozapine, haloperidol, olanzapine and xanomeline, or PBS as a control. This was followed 5 minutes later by 2 mg/kg apomorphine hydrochloride. All drugs were dissolved in PBS or a mixture of (by volume) 96% PBS and 4% hydroxypropyl-beta-cyclodextrin, and dosed at a rate of 5 ml per kilogram of body weight. Following injections, animals were replaced in the mesh cages and observed for climbing (defined as 3 or more paws off the ground) every 5 minutes for a duration of 1 minute for 60 minutes after dosing.

Data set [3] relates to pooled male human liver microsomes. The experiment in a line: Metabolism by human liver microsomes. The settings on record: 6 hours incubation. Format: in vitro ADME. Here is the method: Compounds were incubated with pooled male human liver microsomes (BD Biosciences, #452172) and an NADP-regenerating system in a phosphate buffer (pH 7.4) for a total of 6 hours. Aliquots were removed every 2 hours, and 1% formic acid was added to halt the reaction. Samples were centrifuged, filtered through 0.2 micron spinfilter and the amount of each compound in the supernatants was quantitated using LC/MS/MS.
Background: Liver microsomes are a subcellular fraction often used to study metabolism.

For another data set, the system named is Long Evans Hooded rats. The experiment in a line: In vivo measurement of salivation. Details: species or system rat. How it is done:
Suitable doses of test compounds or drug substances were administered using standard techniques to Long Evans Hooded rats weighing 225 to 350 grams, or CD-1 mice weighing 30 to 50 grams, which had been anesthetized using 2-3.5%% of isoflurane in oxygen. The animals were placed slightly head-down on an inclined, heated ramp. Rectal temperature was monitored using a thermocouple and the temperature of the heating pad was adjusted manually to maintain normal body temperature. Saliva was collected from the mouth by absorption onto pre-weighed slips of filter paper. The filter paper was changed periodically and the amount of saliva was measured by weighing the filter paper slips.

A further data set relates to A-beta. The experiment in a line: A-beta in hippocampal microdialysate of Tg-2576 transgenic mice. Format: in vivo, mouse. The note with it: single dose. An excerpt:
These mice have high concentrations of A-beta in their brain tissue, thought to be the cause of neuron death in Alzheimer's disease, and accumulate amyloid plaques, recapitulating one of the hallmark pathological features of Alzheimer's disease.

In a further data set the test system is rats. The experiment in a line: Salivation after transdermal iontophoretic co-delivery of agonist and antagonist from one patch. Format: in vivo, rat. The settings on record: anesthetized rats, device with 1 mg Compound 3 plus 0.01 mg antagonist. How it is done:
Experimental compounds and drug substances were delivered transdermally in rats using iontophoresis as follows. The fur was shaved from the backs of Long Evans Hooded rats weighing 225 to 325 grams, using electric clippers. Experimental compounds and drug substances were formulated at suitable concentrations an aqueous mixture of the following composition:
The polyvinyl alcohol/water was heated to 95 degC until it became clear, then the other constituents were added and mixed well. The mixture was introduced into suitable molds containing a disc-shaped cavity 2.2 cm diameter and 2.2 mm deep. Molds may be fabricated using two glass sheets separated by a silicone rubber sheet with suitable sized cavities and filling ports cut-outs. The molds were subject to 3 freeze-thaw cycles at −80 degC and 20 degC until a firm cryogel was obtained. The gels were separated from the molds and trimmed into a circular shape. The gel was placed in a silicone rubber casing with one face in contact with a circular silver foil anodic electrode (22 mm dia/250 microns thick), and the assembly was placed on the shaved skin of the rat such that the other face was in contact with the skin on one side of the back of the rat. The rubber casing formed a seal over and around the gel/electrode assembly. […] This was placed on the other side of the shaved back of the rat, the edges of the gel discs being about 20 mm apart at their nearest point. A DC voltage was applied across the two patches from a constant-current DC power supply and the voltage adjusted to obtain the desired current, such that the skin of the animal completed the electrical circuit.
The devices were placed on shaved backs of anesthetized rats and salivation was measured.
The animals were placed slightly head-down on an inclined, heated ramp. Rectal temperature was monitored using a thermocouple and the temperature of the heating pad was adjusted manually to maintain normal body temperature. Saliva was collected from the mouth by absorption onto pre-weighed slips of filter paper. The filter paper was changed periodically and the amount of saliva was measured by weighing the filter paper slips.

Data set [4] relates to inositol phosphate signaling pathway. The experiment in a line: In vivo measurement of tissue inositol phosphate signaling pathway activation (hippocampus, salivary gland). The settings on record: rat, Compound 3 1 mg/kg. Here is the method:
Experimental compounds or drug substances were administered using standard techniques to Long Evans Hooded rats weighing 225 to 350 grams, and which had been pretreated with a subcutaneous injection of lithium chloride at a suitable dose between 3 and 10 mmoles per kg. At suitable times the animals were briefly anesthetized using 5% isoflurane and euthanized by decapitation. The brains and submaxillary salivary glands were rapidly dissected out, and the hippocampuses were dissected from the brains. The dissected tissues were homogenized in a suitable volume of ice-cold phosphate-buffered saline containing 10 mM lithium chloride, pH7.4, using a tissue homogenizer, and used immediately or frozen in aliquots at −80 degC for future use. The concentration of inositol-1-phosphate was determined in the homogenates using the IPOne TR-FRET assay (CisBio cat no 621PAPEB), following the manufacturer's instruction

The mark [5] stands for this setting: potency class relative to carbachol.

T2 sequence (P20309 whole entry): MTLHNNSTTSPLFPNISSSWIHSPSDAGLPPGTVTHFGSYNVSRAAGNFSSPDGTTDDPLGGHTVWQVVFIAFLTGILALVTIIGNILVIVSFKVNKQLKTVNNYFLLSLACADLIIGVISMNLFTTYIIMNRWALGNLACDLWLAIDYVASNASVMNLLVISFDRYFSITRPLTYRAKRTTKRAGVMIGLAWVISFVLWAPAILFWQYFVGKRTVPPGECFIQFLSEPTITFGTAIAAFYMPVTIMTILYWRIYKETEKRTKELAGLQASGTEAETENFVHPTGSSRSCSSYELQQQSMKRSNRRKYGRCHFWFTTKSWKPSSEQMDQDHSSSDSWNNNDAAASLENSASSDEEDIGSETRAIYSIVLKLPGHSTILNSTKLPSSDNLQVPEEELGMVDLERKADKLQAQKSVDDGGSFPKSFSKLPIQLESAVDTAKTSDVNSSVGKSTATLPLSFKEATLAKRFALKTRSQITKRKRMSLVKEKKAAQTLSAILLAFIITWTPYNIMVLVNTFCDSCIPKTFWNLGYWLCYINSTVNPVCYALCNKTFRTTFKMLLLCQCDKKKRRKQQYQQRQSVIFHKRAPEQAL

As to `Cc1noc(C2CN3CCC2CC3)n1` (centres unmarked) [Compound 37, 3-methyl-5-(quinuclidin-3-yl)-1,2,4-oxadiazole, reference compound], the “huM1/A9L ED50 relative to CCh” value in data set [1] is “++ (key: ++: potency > 10x CCh; +: potency 2-10x CCh; +/−: potency 0.5-2x CCh; −: potency < 0.5-0.1x CCh; −−: potency < 0.1x CCh; inactive: potency too low to determine)”. For the same compound, the “Potency and efficacy at M1 muscarinic receptors” value in data set [1] (Table 12) is listed as “highly potent”. The “Selectivity for M1 versus M3 receptors” value in [1] (huM1/A9L versus huM3/A9L) is “essentially non-selective between M1 and M3 receptors”. Besides, the PAMPA units in “PAMPA test” is reported as 3.02. In data set [2], the “huM3/A9L ED50 relative to CCh” value is “++ (key: ++: potency > 10x CCh; +: potency 2-10x CCh; +/−: potency 0.5-2x CCh; −: potency < 0.5-0.1x CCh; −−: potency < 0.1x CCh; inactive: potency too low to determine)”.
The compound `Cc1noc(C2CCCNC2)n1` (racemic) [compound 3, 3-Methyl-5-(piperidin-3-yl)-1,2,4-oxadiazole] showed a PAMPA units of 2.56. Moreover, the “huM1/A9L ED50 relative to CCh” value in [1] is “+ (key: ++: potency > 10x CCh; +: potency 2-10x CCh; +/−: potency 0.5-2x CCh; −: potency < 0.5-0.1x CCh; −−: potency < 0.1x CCh; inactive: potency too low to determine)”. The “Climbing Mean (secs)” value in the data set on CD-I mice (Cmpd 3 + APO + N-Methyl Scopolamine 0.3 mg/kg) is “unaffected by N-methylscopolamine”. The “Climbing Mean (secs)” value in the data set on CD-I mice (Cmpd 3 + APO + scopolamine 0.3 mg/kg) was “inhibited by scopolamine”. Besides, in the data set with CD-I mice (sc), the “Potency in inhibiting climbing relative to reference antipsychotic” value is “equipotent to haloperidol”. Besides, the “huM3/A9L ED50 relative to CCh” value in [2] is “+/− (key: ++: potency > 10x CCh; +: potency 2-10x CCh; +/−: potency 0.5-2x CCh; −: potency < 0.5-0.1x CCh; −−: potency < 0.1x CCh; inactive: potency too low to determine)”. For the same compound, in data set [3], the “Metabolism in human liver microsomes” value was “metabolized significantly less in human liver microsomes than in rat liver microsomes”. Besides, the Salivation result with Long Evans Hooded rats (anesthetized normal rats, dose-dependent between about 0.1 mg/kg and 1 mg/kg) is on record as “causes salivation”. For the same compound, in the data set on A-beta, the “Reduction of concentration of A-beta 1-40 in hippocampal microdialysate” value is reported as “approximately 40%” and the “Reduction of concentration of A-beta 1-42 in hippocampal microdialysate” value is listed as “approximately 40%”.
`Clc1cccc(Cl)c1N=C1NCCN1` [Clonidine] yielded a PAMPA units of 7.95.
As for `CNC(=C[N+](=O)[O-])NCCSCc1ccc(CN(C)C)o1` [Ranitidine], the PAMPA units worked out at 0.26.
In the case of `C[N+]1(C)[C@@H]2C[C@@H](OC(=O)[C@H](CO)c3ccccc3)C[C@H]1[C@@H]1O[C@@H]12` [NMS, N-methylscopolamine], the “Reduction of salivation caused by transdermal iontophoretic delivery of Compound 3” value with rats is on record as “greatly reduced”. Also, the “Decrease in salivation caused by Compound 3” value with Long Evans Hooded rats (Compound 3 0.3 mg/kg) is “dose-dependent decrease in salivation”. Further, the figures for the “Block of increase in salivary gland inositol phosphate caused by Compound 3” value in [4] (antagonist 0.003 mg/kg), in [4] (antagonist 0.03 mg/kg to 0.01 mg/kg) and in [4] (antagonist 0.1 mg/kg) were “some breakthrough activation”, “nearly as effective as 0.1 mg/kg” and “completely block”, respectively. Further, the “Inhibition of increase in hippocampal inositol phosphate caused by Compound 3” value in data set [4] (antagonist 0.1 mg/kg) is given as “does not inhibit”.
For the compound `Cc1noc(C2(F)CCCNC2)n1` (centres unmarked) [Compound 35, 5-(3-fluoropiperidin-3-yl)-3-methyl-1,2,4-oxadiazole], the “huM1/A9L ED50 relative to CCh” value in data set [1] (setting [5]) is “− (potency < 0.5-0.1x CCh)”. In the data set “PAMPA test”, this compound had a PAMPA units of 16.3. In addition, the “huM3/A9L ED50 relative to CCh” value in data set [2] (setting [5]) is “−− (potency < 0.1x CCh)”.
